Reference: paper PMC5618426, “APETx4, a Novel Sea Anemone Toxin and a Modulator of the Cancer-Relevant Potassium Channel KV10.1” (Marine Drugs, 2017)
Positions of bridges follow the written chain, without caps; N, C: chain ends. No end group written: not given here.

Assays:
NIH-3T3 = experiment: proliferation (IncuCyte confluency); type: cell-based, mouse; conditions: cell confluency (%) over time, n = 4 wells
Procedure: (§1) The cell proliferation was quantified in terms of cell confluency (%) over time; data points were collected every hour. […] LNCaP, it is presumed that the observed effect cannot only be attributed to KV10.1 inhibition (Figure S5).
(§2) Cell lines SH-SY5Y (ACC 209), LNCaP (ACC 256) and NIH-3T3 (ACC 59) were purchased from DSMZ (Germany). MDA-MB-435S (HTB 129) and hTERT RPE-1 (CRL 4000) were obtained from ATCC (USA). Cell lines were cultured in their recommended media supplemented with 10% or 15% FCS (PAA laboratories, Cölbe, Germany) at 37 °C in humidified 5% CO2 atmosphere. All media were purchased from ThermoFisher Scientific (Waltham, MA, USA).
(§3) Cell proliferation, cytotoxicity and apoptosis were assessed in a 96-well microtiter plate by live-cell imaging using an IncuCyte Zoom System (Essen BioScience, Welwyn Garden City, UK). Cell proliferation was monitored in terms of cell confluency (%). Cell cytotoxicity was assessed by the CellTox Green Dye assay (Promega, Madison, WI, USA). The IncuCyte Caspase-3/7 apoptosis assay (Essen BioScience, UK) was used to evaluate the effect of APETx4 on the apoptotic pathway.
Live-cell imaging data were collected from the IncuCyte Zoom software and analyzed using GraphPad Prism 6 software. Proliferation was measured as Phase Object Confluence (%), cytotoxicity and apoptosis were measured as Green Object Count (1/mm²). Data points were collected every hour. […]

LNCaP [1] = experiment: proliferation (IncuCyte confluency); type: cell-based, human; conditions: cell confluency (%) over time, n = 4 wells
Procedure: as §1, §2, §3
(§4) Live-cell imaging data were collected from the IncuCyte Zoom software and analyzed using GraphPad Prism 6 software. Proliferation was measured as Phase Object Confluence (%), cytotoxicity and apoptosis were measured as Green Object Count (1/mm²). Data points were collected every hour. In order to improve the clarity of the graphs, only the data points for every 5 h are shown. All data are represented as mean ± S.E.M of n = 4 different wells.

LNCaP [2] = type: cell-based, human
Description: (§5) The proapoptotic activity of APETx4 was visualized and quantified by the addition of the IncuCyte Caspase-3/7 Reagent. This reagent is an inert and non-fluorescent substrate, which is cleaved by activated caspase-3/7 during early apoptosis. The cleavage of the reagent releases a DNA-binding green fluorescent dye. […] In Figure 7 an overview is given for the caspase assays of all the tested cell lines.
(§6) Figure 7 Investigation of the proapoptotic effect of APETx4 on various cell lines using a Caspase-3/7 Reagent. The amount of cells in early apoptosis was plotted as Green Object Count (1/mm²) versus time (hours). The data points represented as red triangles were obtained from apoptosis experiments with cells incubated without APETx4, the green squares represent experiments with 20 µM APETx4 and the blue circles were obtained from experiments with 50 µM APETx4.
as §2, §3, §4

SH-SY5Y = type: cell-based, human
Description: as §5, §6, §2, §3, §4

hTERT RPE-1 = type: cell-based, human
Description: as §5, §6, §2, §3, §4

MDA-MB-435S = type: cell-based, human
Description: as §5, §6, §2, §3, §4

[3] = 50 µM APETx4, immediately after toxin addition
[4] = 50 µM APETx4, 0 h, 24 h and 48 h
[5] = green object count (1/mm²) versus incubation time

GTTCYCGKTIGIYWFGKYSCPTNRGYTGSCPYFLGICCYPVD (disulfide 4-37, 6-30, 20-38) [APETx4]
antiproliferative effect (NIH-3T3): without affecting the proliferation of healthy fibroblast cells
antiproliferative effect (LNCaP [1]): concentration-dependent antiproliferative effect
cytotoxic effect in Xenopus oocytes (Xenopus oocytes): cytotoxic effect is not observed
viability in cell images (LNCaP [2]; [3]): became less viable
response time in caspase assay (LNCaP [2]; very rapid response): < 60 min
viability in cell images (SH-SY5Y; [4]): immediate effects were not clearly observed
time course of green fluorescent cells (early apoptosis) (SH-SY5Y; [5]): gradual increase in green fluorescent cells
viability in cell images (hTERT RPE-1; [3]): became less viable
response time in caspase assay (hTERT RPE-1; very rapid response): < 60 min
viability in cell images (MDA-MB-435S; [4]): immediate effects were not clearly observed
time course of green fluorescent cells (early apoptosis) (MDA-MB-435S; [5]): gradual increase in green fluorescent cells
